Measured values taken from patent US7816345B2, “Phosphorus-containing prodrugs” (Metabasis Therapeutics, Inc., priority 1999, dated 2010).

Legend:
[1] = system: glucose production in isolated rat hepatocytes; experiment: Inhibition of glucose production in rat hepatocytes (Example I); assay type: cell-based; settings: for IC50: lactate/pyruvate as substrates, 1 hour
Procedure: Methods: Isolated rat hepatocytes were prepared from fasted Sprague Dawley rats (250-300 g) as described in Example G. Hepatocytes (75 mg wet weight/ml) were incubated in 1 ml Krebs bicarbonate buffer containing 10 mM glucose, and 1 mg/ml BSA. Incubations were carried out in a 95% oxygen, 5% carbon dioxide atmosphere in closed, 50-ml Falcon tubes submerged in a rapidly shaking water bath (37° C.). After 10 minutes of equilibration, lactate and pyruvate were added to 10 mM and 1 mM concentrations, respectively. Addition of these gluconeogenic substrates was immediately followed by the addition of test compound to concentrations ranging from 1-100 μM. After 1 hour, an aliquot (0.25 ml) was removed, and transferred to an Eppendorf tube and centrifuged. The resulting supernatant (50 μl) was then assayed for glucose content using a Glucose Oxidase kit (Sigma Chemical Co.) as per the manufacturer's instructions.

mouse = experiment: Byproduct toxicity testing in vivo (Example N)
Procedure: Plasma samples are subjected to a standard chemistry panel in which markers of liver function are evaluated.

FBPase = target: T1, FBPase (Homo sapiens, UniProt P09467); experiment: FBPase inhibition in vitro; assay type: biochemical
T1 sequence (P09467 1-338): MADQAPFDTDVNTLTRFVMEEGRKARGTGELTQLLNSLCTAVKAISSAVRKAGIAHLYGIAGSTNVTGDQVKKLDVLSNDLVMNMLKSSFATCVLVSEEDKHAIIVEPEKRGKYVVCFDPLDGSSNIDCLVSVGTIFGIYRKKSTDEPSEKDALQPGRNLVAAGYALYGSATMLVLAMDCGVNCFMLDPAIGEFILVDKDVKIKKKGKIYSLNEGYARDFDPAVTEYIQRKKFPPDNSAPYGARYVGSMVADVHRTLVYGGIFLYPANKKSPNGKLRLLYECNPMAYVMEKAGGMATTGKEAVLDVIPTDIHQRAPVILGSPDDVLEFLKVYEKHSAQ

human recombinant CYP3A4 = target: T2, human recombinant CYP3A4 (Homo sapiens, UniProt P08684); experiment: Activation by recombinant CYP3A4 (Example F); assay type: in vitro ADME; settings: microsomes from baculovirus-infected insect cells co-expressing CYP3A4 and cytochrome p450 reductase
T2 construct: purchased Panvera Corp., Madison, Wis; host or cells: baculovirus-infected insect cells (microsomes)
T2 sequence (P08684 2-503): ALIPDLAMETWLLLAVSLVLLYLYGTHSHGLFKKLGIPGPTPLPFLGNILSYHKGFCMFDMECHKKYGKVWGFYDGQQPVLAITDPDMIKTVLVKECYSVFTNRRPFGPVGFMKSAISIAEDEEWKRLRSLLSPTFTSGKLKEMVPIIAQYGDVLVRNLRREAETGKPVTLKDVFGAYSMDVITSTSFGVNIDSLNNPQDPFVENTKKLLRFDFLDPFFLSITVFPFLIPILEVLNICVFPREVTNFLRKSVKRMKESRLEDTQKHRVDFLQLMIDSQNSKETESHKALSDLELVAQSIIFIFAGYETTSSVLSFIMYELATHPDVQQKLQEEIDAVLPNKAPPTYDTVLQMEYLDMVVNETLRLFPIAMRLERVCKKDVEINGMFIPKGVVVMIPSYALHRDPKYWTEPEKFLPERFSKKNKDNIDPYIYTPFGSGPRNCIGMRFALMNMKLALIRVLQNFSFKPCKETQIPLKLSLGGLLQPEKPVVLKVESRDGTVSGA
Procedure: Activation of 1.3 was evaluated in reactions containing microsomes from baculovirus-infected insect cells co-expressing human recombinant CYP3A4 and cytochrome p450 reductase (Panvera Corp., Madison, Wis.).
Methods: Reaction mixture composition was similar to that described in Example D. Reactions were terminated by addition of methanol to a final concentration of 60% and products were analyzed by HPLC as described in Example A.

[2] = Chemical stability in potassium phosphate buffers (Example A); assay type: physicochemical; settings: pH 7.0 potassium phosphate buffer, room temperature, 12-hour incubation
Procedure: Methods: Aliquots of a 10 μg/mL solution of Compound 1.3 in potassium phosphate buffers at pH 3 and 7 (room temperature) were sampled hourly for 12 hours. Samples were analyzed by reverse phase HPLC with use of a Beckman Ultrasphere C8 column (4.6×250 mm). The column was equilibrated and eluted with a gradient from 50 mM sodium phosphate pH 5.5 to 80% acetonitrile at a flow rate of 1.0 mL/min. Detection was at 254 nm. Under these conditions, Compound 1.3 was separated from 2-Amino-5-isobutyl-4-[2-(5-phosphonomonoamide)furanyl]thiazole, and from 2-Amino-5-isobutyl-4-(2-furanyl)thiazole (retention times=17, 15.8, and 15.6 min., respectively).

[3] = system: hepatocytes isolated from rats in which CYP3A4 expression was induced; experiment: Activation in hepatocytes from dexamethasone-induced rats (Example J); assay type: cell-based, rat; settings: two hours of incubation
Procedure: Methods: Hepatocytes were prepared from fed, dexamethasone-induced Sprague-Dawley rats (300 g) according to the procedure of Berry and Friend (Berry, M. N., Friend, D. S. J. Cell Biol. 43, 506-520 (1969)) as modified by Groen (Groen, A. K. et al. Eur J. Biochem 122, 87-93 (1982)). Hepatocytes (62 mg wet weight/ml) were incubated in 2 ml Krebs bicarbonate buffer containing 10 mM glucose, and 1 mg/ml BSA. Incubations were carried out in a 95% oxygen, 5% carbon dioxide atmosphere in closed, 50-ml Falcon tubes submerged in a rapidly shaking water bath (37° C.). 3.1 and 3.2 were dissolved in methanol to yield 25 mM stock solutions, and then diluted into the cell suspension to yield a final concentration of 250 μM. Two hours following administration, aliquots of the cell suspension were removed and spun through a silicon/mineral oil layer into 10% perchloric acid. The cell extracts in the acid layers were neutralized by the addition of 0.3 volumes of 3M KOH/3M KHCO3, and the extract was then centrifuged, filtered (0.2 micron) and loaded onto an anion exchange HPLC column equilibrated with 70% A (10 mM ammonium phosphate pH 3.5, 6% ETOH) and 30% B (1 M ammonium phosphate pH 3.5, 6% ETOH). […] Detection was by uv absorbance at 254 nm. Peak areas were quantified by comparison of peak areas to authentic standards spiked into naive hepatocyte extracts. […]

rat hepatocytes = experiment: Activation in isolated rat hepatocytes, intracellular triphosphate generation (Examples G, H); assay type: cell-based; settings: 250 μM, two hours of incubation
Procedure: Methods: Hepatocytes were prepared from fed, dexamethasone-induced Sprague-Dawley rats (300 g) according to the procedure of Berry and Friend (Berry, M. N., Friend, D. S. J. Cell Biol. 43, 506-520 (1969)) as modified by Groen (Groen, A. K. et al. Eur J. Biochem 122, 87-93 (1982)). Hepatocytes (62 mg wet weight/ml) were incubated in 2 ml Krebs bicarbonate buffer containing 10 mM glucose, and 1 mg/ml BSA. Incubations were carried out in a 95% oxygen, 5% carbon dioxide atmosphere in closed, 50-ml Falcon tubes submerged in a rapidly shaking water bath (37° C.). 3.1 and 3.2 were dissolved in methanol to yield 25 mM stock solutions, and then diluted into the cell suspension to yield a final concentration of 250 μM. Two hours following administration, aliquots of the cell suspension were removed and spun through a silicon/mineral oil layer into 10% perchloric acid. […] Detection was by uv absorbance at 254 nm. Peak areas were quantified by comparison of peak areas to authentic standards spiked into naive hepatocyte extracts.
Methods: 3.2 and acyclovir were evaluated in isolated rat hepatocytes at 250 μM as described in Example G.

[4] = system: P450 isozymes (CYP3A4, CYP1A2, CYP2C9) in human microsomal protein; settings: 0-100 μM inhibitor, 250 μM prodrug, 37° C.
Procedure: Prodrugs are evaluated for human microsome-catalyzed conversion to MPO2—(NHR^6−) in the absence and presence of specific inhibitors of three major P450 isozymes: ketoconazole (CYP3A4), furafylline (CYP1A2), and sulfaphenazole CYP2C9).
Methods: Reactions (0.5 ml @37° C.) consist of 0.2 M KH2PO4, 13 mM glucose-6-phosphate, 2.2 mM NADP+, 1 unit of glucose-6-phosphate dehydrogenase, 0-2.5 mg/ml human microsomal protein (In Vitro Technologies, Inc.), 250 μM prodrug, and 0-100 μM P450 isozyme inhibitor. Reactions are stopped by addition of methanol to a concentration of 60%, and filtered ([…] filter). MPO2—(NHR^6−) is quantified by standard reverse phase, ion-pairing, or ion exchange HPLC methods. Eluted peaks are quantified relative to authentic standards of known concentration.

rat embryos in culture = settings: cited from earlier work

## CC(C)Cc1sc(N)nc1-c1ccco1 [2-Amino-5-isobutyl-4-(2-furanyl)thiazole]
[1]; Rattus norvegicus, Hepatocyte
  IC50: 2.5 µM

## CC(=O)Nc1ccc(O)cc1 [Acetaminophen]
mouse; 50, 250 and 500 mg/kg
  reduction of hepatic glutathione: dose-dependent reduction
mouse; highest dose
  depletion of hepatic glutathione: > 80%

## CC(C)Cc1sc(N)nc1-c1ccc(P2(=O)NCCC(c3ccccc3)O2)o1 (centres unmarked) [Compound 1.3, 2-Amino-5-isobutyl-4-{2-[5-(1-phenyl-1,3-propyl)phosphoramido]furanyl}thiazole]
[1]
  IC50: 8.5 µM
[1]; ratio of IC50's for glucose production
  lower potency relative to 2-Amino-5-isobutyl-4-(2-furanyl)thiazole: ~3 fold
FBPase
  inhibition of FBPase in vitro: not an inhibitor
Human recombinant CYP3A4
  rate of generation of 2-Amino-5-isobutyl-4-[2-(5-phosphonomonoamide)furanyl]thiazole: 4.2 nmoles/min./nmole CYP3A4
[2]
  stability: fully stable

## CSc1sc(N)nc1-c1ccc(P2(=O)OC(c3ccccc3)CCN2C)o1 (centres unmarked) [Compound 1.7, 2-Amino-5-methylthio-4-{2-[5-(N-methyl-1-phenyl-1,3-propyl)phosphoramido]furanyl}thiazole]
[3]
  levels of 2-Amino-5-methylthio-4-[2-(5 phosphono)furanyl]thiazole formed: 20.5 ± 3 nmol/g

## Nc1ncnc2c1ncn2[C@@H]1O[C@H](COP2(=O)NC(c3ccccc3)CCO2)[C@@H](O)[C@@H]1O (stereo partly drawn) [Compound 3.1, 5′-O-(2-oxo-4-Phenyl-1,3,2-oxazaphosphorin-2-yl)-9-β-D-arabinofuranosyl-adenine]
Rat hepatocytes
  Intracellular concentration of nucleoside triphosphate (AraATP from 3.1, acyclovir-triphosphate from 3.2): 15.7 ± 16 nmol/g

## CC(=O)N1CCN(c2ccc(OCC3COC(Cn4ccnc4)(c4ccc(Cl)cc4Cl)O3)cc2)CC1 (centres unmarked) [Ketoconazole]
[4]
  inhibition of formation of MPO2—(NHR^6−) from prodrug: inhibits the formation of MPO2—(NHR^6−) in a dose-dependent fashion

## C=CC(=O)c1ccccc1 [Phenyl vinyl ketone]
Rat embryos in culture
  teratogenic activity: lacks teratogenic activity

## Cc1nc2c([nH]1)c(=O)n(C)c(=O)n2Cc1ccco1 [furafylline]
[4]
  inhibition of formation of MPO2—(NHR^6−) from prodrug: no significant inhibition

## Nc1ccc(S(=O)(=O)Nc2ccnn2-c2ccccc2)cc1 [sulfaphenazole]
[4]
  inhibition of formation of MPO2—(NHR^6−) from prodrug: no significant inhibition
